How the values were obtained:
SDF-1 (Cxcl12) mRNA = test: SDF-1 mRNA expression in lung and liver of mice after CLP (RT-PCR); assay type: in vivo; settings: 50 mg/kg
Description: (§1) Specifically, donor transgenic GFP (C57BL/6) mice are given 5-FU (150 mg/kg) to kill mature cells. Bone marrow is harvested. C57BL/6 congenic recipient mice are exposed to lethal doses of whole-body radiation (10Gy Cesium-137 at 1.0 Gy/min) and then undergo bone marrow transplant. Engraftment of GFP-BMSC is confirmed after five weeks in select sacrificed mice. Surviving mice are GFP-BMSC chimeras available for investigation. These GFP-BMSC mice then undergo CLP. Specifically, the mice are anesthetized and undergo laparotomy. The sham group undergo laparotomy only. The non-sham group has the cecum ligated and punctured (size and number of punctures may vary depending on the desired severity of injury). Mice are sacrificed at six, twelve and 24 hours. […] Serum is analyzed for levels of cytokines (TNF-α, IL-1, IL-2, IL-4, IL-6, IL-10, and IFN-γ) and chemokines (SDF-1 and SCF). […]
(§2) Additionally, four groups of 20 mice: sham group underwent celiotomy but not CLP; control group underwent CLP and administration of PBS; simultaneous treatment group (STG) had administration of 50 mg/kg MADG PO. […] Serum and tissue levels of pro- and anti-inflammatory cytokines were measured. Serum levels of chemokines stromal cell-derived factor (SDF-1) and stem cell factor (SCF) were measured to ascertain if effects of MADG involve stimulation of bone marrow stromal and stem cells. […]

SCF (Kit) mRNA = test: SCF mRNA expression in lung and liver of mice after CLP (RT-PCR); assay type: in vivo; settings: 50 mg/kg
Description: as §1, §2

CCCCC/C=C\C/C=C\CCCCCCCC(=O)OC(COC(C)=O)COC(=O)CCCCCCCCCCCCCCC (racemic) [EC-18, 1-palmitoyl-2-linoleoyl-3-acetyl-rac-glycerol]
increased early expression: Cxcl2 (SDF-1) mRNA expression in the liver (SDF-1 (Cxcl12) mRNA; liver, compared to controls (FIG. 5A)) | Cxcl2 (SDF-1) mRNA expression in the lung (SDF-1 (Cxcl12) mRNA; lung, compared to controls (FIG. 4A)) | kit (SCF) mRNA expression in the liver (SCF (Kit) mRNA; liver, compared to controls (FIG. 5B)) | kit (SCF) mRNA expression in the lung (SCF (Kit) mRNA; lung, compared to controls (FIG. 4B))

Reference: US20100010087A1, “Methods for Inducing Stem Cell Migration and Specialization with EC-18” (priority 2008, published 2010)
